In assay [1] the test system is pre-formed Aβd/t-induced cofilin-mRFP rods in E18 rat neurons.
In assay [2] the test system is Aβd/t-induced cofilactin rods in Day 55 human iPSC-derived glutamatergic neurons. The assay can be described thus: cells. Conditions: Neuron, read-out: EC50 for inhibition of Aβd/t-induced rods, human neurons.
Protocol: (§1) The predominantly dimer/trimer fraction of a secreted human amyloid-β (Aβd/t) was derived from a Chinese hamster ovary-cell line (7PA2) [62]. Medium from these cells collected after overnight incubation was concentrated 10-fold on Amicon Ultra 15 mL, 3K cut-off spin filters (Sigma-Aldrich), and the concentrate fractionated on a Superdex-75 Increase (Sigma-Aldrich) gel filtration column equilibrated in 50 mM ammonium acetate buffer [20, 24]. The fractions containing Aβd/t were identified by Western blots using an Aβ antibody (6E10; 1:1000) (Covance, Princeton, NJ, USA). Fractions were freeze-dried, resolubilized in 1 mL of sterile water, and freeze-dried a second time for storage. The Aβd/t fraction was reconstituted to 1X (concentration in 7PA2 culture medium, assuming full recovery of the dimer/trimer fraction) in neuronal culture medium prior to addition to neuronal cultures. Quantification of the total Aβd/t pool was determined to be about 1 nM (monomer equivalent) by comparison on immunoblots to a standard curve using synthetic Aβ [20].
(§2) Human neurons were derived from iPSC WTC-11 cells, in which a doxycycline-regulated promoter drives the expression of the Ngn2 transcription factor for glutamatergic neuronal differentiation [67, 68]. […] Differentiated neurons were plated at 60,000 per well and cultured for 55 days in glial-conditioned complete homemade neurobasal medium (hNB) either on poly-D-lysine/Matrigel (Corning Life Sciences, Tewksbury, MA, USA) coated glass bottom 24-well plates (Cellvis, Mountain View, CA, USA) or on similarly coated 12 mm German glass coverslips placed in plastic 24-well plates.
(§3) Cultured neurons were exposed to inhibitors and/or Aβd/t for 20–24 h prior to fixation for 30 min with 4% formaldehyde ± 0.1% glutaraldehyde in cytoskeletal buffer [72], washed 3 times with PBS, and permeabilized with −20 °C methanol (3 min while warming to RT). Methanol permeabilization without the use of non-ionic detergents is critical for optimal observation of rods [13]. After removing the methanol, neurons were washed twice in PBS, twice in Tris Buffered Saline (TBS: 10 mM Tris, pH 7.5, 150 mM NaCl), and incubated for 1 h at RT with blocking buffer (2–5% goat or donkey serum, 1% bovine serum albumin (BSA) in TBS). Primary antibodies (rabbit 1439 anti-cofilin, mouse anti-neurofilament, and chicken anti-MAP2) were diluted in 1% BSA in TBS and incubated overnight on cells at 4 °C. After 3–5 washes with TBS, secondary fluorescent-labeled antibodies (goat anti-rabbit Alexa 488 or 647, goat anti-mouse Alexa 564, or goat anti-chicken Alexa 488 or 564) ± DAPI (1:500 of 1 mg/mL) were added for 1 h at RT in 1% BSA/TBS. After 3–5 TBS washes, coverslips were mounted onto glass slides with Prolong Diamond Antifade ± DAPI (Thermo-Fisher) and air dried overnight in the dark.
(§4) Stitched images of fixed neurons immunolabeled for cofilin and nuclei (DAPI), as well as either NF-H or MAP2, were exported as tiff files to Metamorph (version 7.8, Molecular Devices, San Jose, CA, USA) or ImageJ (Version 1.53e; Java 1.8.0_172; ImageJ.org). In some cases, macro functions were applied to set local thresholds and shape/size segmentation for cofilin rods.
Assay [3] relates to pre-formed Aβd/t-induced cofilactin rods in Day 55 human neurons. Particulars: AMD3100 30 nM for 24 h in the continued presence of Aβd/t; cited from earlier work.
Assay [4] has as its system Aβd/t-induced cofilactin rods in Day 55 human iPSC-derived glutamatergic neurons.
Protocol: as §1, §2, §3, §4
Assay [5] deals with IL-6-induced cofilactin rods in Day 55 human neurons.
Assay [6] deals with dual tropic gp120MN-induced cofilactin rods in Day 55 human neurons.
Assay [7] has as its system pre-formed Aβd/t-induced cofilactin rods in Day 55 human neurons.
The test system of assay [8] is glutamate-induced cofilactin rods in 6 DIV rat hippocampal neurons.
In assay [9] the test system is Aβd/t-induced cofilactin rods in 6 DIV rat hippocampal neurons.
[10] abbreviates: read-out: Human Neuron EC50, inhibition of Aβd/t-induced rods, Day 55 human neurons treated 24 h with Aβd/t plus peptide, Table 1.

The source of these data is paper PMC10813319 (Biomedicines, 2024).

Read-outs that look alike come from different tables or passages of the source. Square brackets hold non-standard residues; d marks the D form. Peptide text beside a SMILES is read from it.

Regarding `c1cc(CN2CCCNCCNCCCNCC2)ccc1CN1CCCNCCNCCCNCC1` [AMD3100], in assay [1] (AMD3100 50 nM, RAP-103 0.1 nM, live imaging over 2.5 h, n = 3), the “Reversal of rods induced by and in the continued presence of Aβd/t” value was “reversed rods”. In assay [2], the EC50 was 2 to 3 nM. Further, in assay [3], the “Reversal of Aβd/t-induced rods in human neurons” value is reported as “reversed”.
Take `C[C@H](O)[C@@H](NC(=O)[C@@H](CO)NC(=O)[C@H](N)CO)C(=O)N[C@H](Cc1ccc(O)cc1)C(=O)N[C@H](CCCNC(=N)N)C(=O)O` [Peptide 2] (H-[dS][dS][dT][dY][dR]-OH; N-terminus and C-terminus assumed): the EC50 in assay [4] (setting [10]) was ~1 nM.
For `C[C@H](O)[C@@H](NC(=O)[C@@H](Cc1ccc(O)cc1)NC(=O)[C@@H](CC(N)=O)NC(=O)[C@H](NC(=O)[C@H](N)CO)[C@H](C)O)C(=O)O` [Peptide 3] (H-[dS][dT][dN][dY][dT]-OH), in [4] (setting [10]), the EC50 is ~1.5 nM.
Same read-out and setting: the figure for `CN[C@@H](C(=O)N[C@@H](C(=O)N[C@H](CC(N)=O)C(=O)N[C@H](Cc1ccc(O)cc1)C(=O)N[C@@H](C(=O)O)[C@H](C)O)[C@H](C)O)[C@H](C)O` [Peptide 6] is > 1 nM.
As for `C[C@H](O)[C@@H](N)C(=O)N[C@@H](C(=O)N[C@H](CC(N)=O)C(=O)N[C@H](Cc1ccc(O)cc1)C(=O)N[C@@H](C(=O)O)[C@H](C)O)[C@H](C)O` [RAP-103], the EC50 in [5] is ~0.0001 nM. Further, the “Inhibition of gp120MN-induced rod formation” value in assay [6] is “completely inhibited”. The “Time to 50% rod reversal in human neurons” value in assay [7] is listed as ~ 3 h. Further, in [1], the “Adjusted time of 50% loss of rod area” value was “about 200 min”; the “Extrapolated time to 50% decrease in rod size” value is given as ~ 3 h; the “Rate of rod reversal relative to AMD3100” value is on record as 2 fold; the “Reversal of rods induced by and in the continued presence of Aβd/t” value is on record as “reversed rods”.
In the case of `C[C@H](O)[C@@H](NC(=O)[C@@H](Cc1ccc(O)cc1)NC(=O)[C@@H](CC(N)=O)NC(=O)[C@H](NC(=O)[C@H](NC(=O)[C@H](NC(=O)[C@@H](CO)NC(=O)[C@@H](C)N)[C@H](C)O)[C@H](C)O)[C@H](C)O)C(N)=O` [RAP-310], the “Inhibition of glutamate-induced rods” value in assay [8] is on record as “did not inhibit”. For the same compound, in [9], the “Inhibition of Aβd/t-induced rods, rat neurons” value is “fully inhibited”.
Maraviroc [reference compound]: the EC50 in [4] (read-out: EC50 for inhibition of Aβd/t-induced rods, human neurons, Day 55 human iPSC-derived neurons, <1 nM to 100 nM, approximate, estimated from semi-log plots (Figure S2C,D), n = 2) was 8 to 9 nM.
